# Target: T1, GltTk (Thermococcus kodakarensis, UniProt Q5JID0)
# T1 construct: gene TK0986; C-terminally His8-tagged, pBAD24-derived plasmid, E. coli MC1061; purified in decyl maltoside; trimer
# Assay: isothermal titration calorimetry; crystal structure […] Å
# Format: binding
# Settings: eight Na+ concentrations (apparent affinity strongly Na+-dependent); 10 mM Hepes KOH pH 8, 100 mM KCl, 0.15% DM, 25 °C; transport substrate site
# T1 sequence (Q5JID0 entry or part of it): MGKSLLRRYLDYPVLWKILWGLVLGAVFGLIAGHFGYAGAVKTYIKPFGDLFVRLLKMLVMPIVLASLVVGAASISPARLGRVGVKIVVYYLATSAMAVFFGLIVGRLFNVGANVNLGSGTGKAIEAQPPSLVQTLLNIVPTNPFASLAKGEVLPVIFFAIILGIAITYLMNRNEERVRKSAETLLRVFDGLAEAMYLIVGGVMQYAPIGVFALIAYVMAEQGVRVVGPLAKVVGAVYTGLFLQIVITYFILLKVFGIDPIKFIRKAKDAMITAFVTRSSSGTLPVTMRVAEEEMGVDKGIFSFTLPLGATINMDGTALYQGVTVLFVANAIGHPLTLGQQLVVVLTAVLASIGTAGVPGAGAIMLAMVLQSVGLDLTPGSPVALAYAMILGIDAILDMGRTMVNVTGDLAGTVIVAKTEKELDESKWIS
smiles,measurement,value
N[C@@H](CC(=O)O)C(=O)O [L-aspartate],Apparent affinity,Apparent affinity of GltTk for aspartate as a function of Na^+ concentration
